Experimental data from patent US12441742B2, “Naphthyridine compounds as inhibitors of KRAS” (Incyte Corporation, priority 2021, dated 2025).

Assays:
[1] = target: T1, KRAS G12D (Homo sapiens, UniProt P01116, G12D); test: KRAS_G12D cellular pERK HTRF assay; format: cell-based; design: CRL-1997; host or cells: A427 or HPAF-II; conditions: KRAS G12D cells (A427, HPAF-II), 2 hours; for IC50: read-out: G12D_pERK (KRAS_G12D pERK assay IC50)
Method: MIA PaCa-2 (KRAS G12C; ATCC® CRL-1420), A427 (KRAS G12D; ATCC® HTB53), HPAF-II (KRAS G12D; ATCC® CRL-1997) and NCI-H838 (KRAS WT; ATCC® CRL-5844) cells are purchased from ATCC and maintained in RPMI 1640 media supplemented with 10% FBS (Gibco/Life Technologies). The cells are plated at 5000 cells per well (8 uL) into Greiner 384-well low volume, flat-bottom, tissue culture treated white plates and incubated overnight at 37° C., 5% CO2. The next morning, test compound stock solutions are diluted in media at 3x the final concentration, and 4 uL are added to the cells. The plate is mixed by gentle rotation for 30 seconds (250 rpm) at room temperature. The cells are incubated with the KRAS G12C and G12D compounds for 4 hours or 2 hours respectively at 37° C., 5% CO2.
4 uL of 4x lysis buffer with blocking reagent (1:25) (Cisbio) are added to each well and plates are rotated gently (300 rpm) for 30 minutes at room temperature. 4 uL per well of Cisbio anti Phospho-ERK 1/2 d2 is mixed with anti Phospho-ERK 1/2 Cryptate (1:1) are added to each well, mixed by rotation and incubated overnight in the dark at room temperature. Plates are read on the Pherastar plate reader at 665 nm and 620 nm wavelengths. IC50 determination is performed by fitting the curve of inhibitor percent inhibition versus the log of the inhibitor concentration using the GraphPad Prism 7 software.

[2] = target: T2, KRAS G12V (Homo sapiens, UniProt P01116, G12V); test: KRAS_G12V GDP-GTP exchange assay (bodipy-GDP/GppNHp, SOS1); format: biochemical; conditions: bodipy loaded KRAS G12V 2.5 nM, 3 hours incubation after GppNHp-SOS1; read-out: G12V_exchange (KRAS_G12V exchange assay IC50)
T2 sequence (P01116 1-188 isoform P01116-2 G12V): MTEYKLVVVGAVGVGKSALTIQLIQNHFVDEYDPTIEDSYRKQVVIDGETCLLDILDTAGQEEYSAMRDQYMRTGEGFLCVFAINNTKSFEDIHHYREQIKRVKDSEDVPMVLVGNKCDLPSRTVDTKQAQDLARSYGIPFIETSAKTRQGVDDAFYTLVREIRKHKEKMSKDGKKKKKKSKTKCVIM
Method: (§1) The inhibitor potency of the exemplified compounds was determined in a fluorescence based guanine nucleotide exchange assay, which measures the exchange of bodipy-GDP (fluorescently labeled GDP) for GppNHp (Non-hydrolyzable GTP analog) to generate the active state of KRAS in the presence of SOS1 (guanine nucleotide exchange factor). Inhibitors were serially diluted in DMSO and a volume of 0.1 μL was transferred to the wells of a black low volume 384-well plate. 5 μL/well volume of bodipy-loaded KRAS G12D diluted to 2.5 nM in assay buffer (25 mM Hepes pH 7.5, 50 mM NaCl, 10 mM MgCl2 and 0.01% Brij-35) was added to the plate and pre-incubated with inhibitor for 4 hours at ambient temperature. Appropriate controls (enzyme with no inhibitor or with a G12D inhibitor) were included on the plate. The exchange was initiated by the addition of a 5 μL/well volume containing 1 mM GppNHp and 300 nM SOS1 in assay buffer. The 10 μL/well reaction concentration of the bodipy-loaded KRAS G12D, GppNHp, and SOS1 were 2.5 nM, 500 uM, and 150 nM, respectively. The reaction plates were incubated at ambient temperature for 2 hours, a time estimated for complete GDP-GTP exchange in the absence of inhibitor. For the KRAS G12V mutant, similar guanine nucleotide exchange assays were used with 2.5 nM as final concentration for the bodipy loaded KRAS proteins and 3 hours incubation after adding GppNHp-SOS1 mixture. A cyclic peptide described to selectively bind G12D mutant (Sakamoto et al., BBRC 484.3 (2017), 605-611) or internal compounds with confirmed binding were used as positive controls in the assay plates. Fluorescence intensities were measured on a PheraStar plate reader instrument (BMG Labtech) with excitation at 485 nm and emission at 520 nm.
(§2) Either GraphPad prism or XLfit was used to analyze the data. The IC50 values were derived by fitting the data to a four parameter logistic equation producing a sigmoidal dose-response curve with a variable Hill coefficient. Prism equation: Y=Bottom+(Top−Bottom)/(1+10^((Log IC50−X)*Hill slope)); XLfit equation: Y=(A+((B−A)/(1+((X/C)^D)))) where X is the logarithm of inhibitor concentration and Y is the response.

[3] = target: T1, KRAS G12D; test: KRAS_G12D GDP-GTP exchange assay (bodipy-GDP/GppNHp, SOS1); format: biochemical; conditions: bodipy-loaded KRAS G12D 2.5 nM, 4 hours pre-incubation, 2 hours exchange
Method: as §1, §2

[4] = target: T2, KRAS G12V; test: KRAS_G12V pERK assay; format: cell-based; conditions: read-out: G12V_pERK (KRAS_G12V pERK assay IC50)

T1 sequence (P01116 1-188 isoform P01116-2 G12D): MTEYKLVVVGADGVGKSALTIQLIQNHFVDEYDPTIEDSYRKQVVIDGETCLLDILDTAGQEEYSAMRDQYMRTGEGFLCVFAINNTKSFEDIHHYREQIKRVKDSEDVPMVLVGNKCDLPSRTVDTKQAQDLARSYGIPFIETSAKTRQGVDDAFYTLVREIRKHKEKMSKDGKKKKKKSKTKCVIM

| SMILES | IC50 [1] [nM] | IC50 [2] [nM] | G12D_exchange (KRAS_G12D exchange assay IC50) [3] | IC50 [4] [nM] | G12D_pERK (KRAS_G12D pERK assay IC50) [1] | IC50 ([3]; read-out: G12D_exchange (KRAS_G12D exchange assay IC50)) [nM] |
| --- | --- | --- | --- | --- | --- | --- |
| Cc1cc2c(OCC34CCCN3CCC4)nc3c(F)c(-c4cc(O)cc5ccccc45)ncc3c2n1[C@@H]1[C@@H]2CN[C@H]1C2 (relative stereo) [Example 4, 4-(1-((endo)-2-azabicyclo[2.1.1]hexan-5-yl)-6-fluoro-2-methyl-4-((tetrahydro-1H-pyrrolizin-7a(5H)-yl)methoxy)-1H-pyrrolo[3,2-c][1,6]naphthyridin-7-yl)naphthalen-2-ol] | 100 to 1000 | ≤ 100 | † | 1000 to 5000 |  |  |
| COC(=O)N1CCC[C@@H]1c1cc2c(O[C@@H](C)CN3CCCC3)nc3c(F)c(-c4cccc5scnc45)ncc3c2n1[C@H]1[C@H]2CN[C@@H]1C2 [Example 25, methyl (R)-2-(7-(benzo[d]thiazol-4-yl)-1-((1R,4R,5S)-2-azabicyclo[2.1.1]hexan-5-yl)-6-fluoro-4-(((S)-1-(pyrrolidin-1-yl)propan-2-yl)oxy)-1H-pyrrolo[3,2-c][1,6]naphthyridin-2-yl)pyrrolidine-1-carboxylate] |  | 100 to 1000 | † | 1000 to 5000 | † |  |
| COC(=O)CCc1cc2c(O[C@@H](C)[C@@H]3CCCN3C)nc3c(F)c(-c4cc(O)cc5ccccc45)ncc3c2n1C1C2CNC1C2 (single isomer, unassigned) [Example 1a] |  | ≤ 100 | † | 1000 to 5000 | † |  |
| CN(C)C(=O)CCc1nc2c(N3CC(N(C)C)C3)nc3cc(-c4cc(O)cc5ccccc45)c(CCC#N)nc3c2n1C1C2CNC1C2 (single isomer, unassigned) [Example 17b, 3-(1-((endo)-2-azabicyclo[2.1.1]hexan-5-yl)-8-(2-cyanoethyl)-4-(3-(dimethylamino)azetidin-1-yl)-7-(3-hydroxynaphthalen-1-yl)-1H-imidazo[4,5-c][1,5]naphthyridin-2-yl)-N,N-dimethylpropanamide] | 5000 to 10000 | 1000 to 5000 | † |  |  |  |
| Cc1cc2c(O[C@@H](C)[C@@H]3CCCN3C)nc3c(F)c(-c4cc(O)cc5ccccc45)ncc3c2n1C1C2CNC1C2 (single isomer, unassigned) [Example 3a] |  | ≤ 100 | † | 100 to 1000 | † |  |
| C[C@H](Oc1nc2c(F)c(N3CCCc4ccccc43)ncc2c2c1cc(CN1CCOC1=O)n2C1C2CNC1C2)[C@@H]1CCCN1C (single isomer, unassigned) [Example 7a] | 1000 to 5000 | 100 to 1000 | † |  |  |  |
| C[C@H](Oc1nc2c(F)c(-c3cc(O)cc4ccccc34)ncc2c2c1nc(CCC(=O)N(C)C)n2C1C2CNC1C2)[C@@H]1CCCN1C (single isomer, unassigned) [Example 9a] | 1000 to 5000 | ≤ 100 | † |  |  |  |
| COC(=O)CCc1cc2c(OC[C@@]34CCCN3C[C@H](F)C4)nc3c(F)c(-c4cc(O)cc5ccccc45)ncc3c2n1C1C2CNC1C2 (single isomer, unassigned) [Example 2b] | 100 to 1000 | ≤ 100 | † | 5000 to 10000 |  |  |
| COC(=O)CCc1nc2c(N3CC(N(C)C)C3)nc3c(F)c(-c4cc(O)cc5ccccc45)ncc3c2n1[C@@H]1[C@@H]2CN[C@H]1C2 (relative stereo) [Example 11, methyl 3-(1-((endo)-2-azabicyclo[2.1.1]hexan-5-yl)-4-(3-(dimethylamino)azetidin-1-yl)-6-fluoro-7-(3-hydroxynaphthalen-1-yl)-1H-imidazo[4,5-c][1,6]naphthyridin-2-yl)propanoate] | 1000 to 5000 | 100 to 1000 | † |  |  |  |
| C[C@H](Oc1nc2c(F)c(-c3cccc4c3OCCC4)ncc2c2c1cc(C1CC[C@H]3COC(=O)N13)n2[C@H]1[C@H]2CN[C@@H]1C2)[C@@H]1CCCN1C (single isomer, unassigned) [Example 26b] | 1000 to 5000 | 100 to 1000 |  |  |  | 100 to 1000 |
| C[C@H](Oc1nc2c(F)c(-c3cccc4c3OCCC4)ncc2c2c1cc(C1CC[C@H]3COC(=O)N13)n2[C@H]1[C@H]2CN[C@@H]1C2)[C@@H]1CCCN1C (single isomer, unassigned) [Example 26a] |  | ≤ 100 | † | 1000 to 5000 | † |  |
| COC(=O)CCc1cc2c(O[C@@H](C)[C@@H]3CCCN3C)nc3c(F)c(-c4cc(O)cc5ccccc45)ncc3c2n1C1C2CNC1C2 (single isomer, unassigned) [Example 1b] |  | ≤ 100 | † | 100 to 1000 |  |  |
| C[C@H](Oc1nc2c(F)c(-c3cccc4c3OCCC4)ncc2c2c1cc(-c1cn(C)nc1C(=O)N(C)C)n2[C@H]1[C@H]2CN[C@@H]1C2)[C@@H]1CCCN1C [Example 27, 4-(1-((1R,4R,5S)-2-azabicyclo[2.1.1]hexan-5-yl)-7-(chroman-8-yl)-6-fluoro-4-((S)-1-((S)-1-methylpyrrolidin-2-yl)ethoxy)-1H-pyrrolo[3,2-c][1,6]naphthyridin-2-yl)-N,N,1-trimethyl-1H-pyrazole-3-carboxamide] | 1000 to 5000 | ≤ 100 | † | 1000 to 5000 |  |  |
| Cc1cc2c(O[C@@H](C)[C@@H]3CCCN3C)nc3c(F)c(-c4cc(O)cc5ccccc45)ncc3c2n1C1C2CNC1C2 (single isomer, unassigned) [Example 3b] | 100 to 1000 | 100 to 1000 | † | 5000 to 10000 |  |  |
